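How tested: cells in 96-well plates exposed to compound for 48 hours at five concentrations. Abbreviation: GI50, concentration required for 50% inhibition of growth.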 Active and inactive are the calls of the source. Rule as the data show it: active = GI50 up to about 1.1 µM and inactive = higher.
Experiments:
Experiment in all cases: inhibition of tumour cell growth, NCI panel, 48 h
EKVX = system: EKVX
HCT-116 = system: HCT-116
HOP-92 = system: HOP-92
HT-29 = system: HT-29
KM12 = system: KM12
LOX IMVI = system: LOX IMVI
NCI-H522 = system: NCI-H522
OVCAR-5 = system: OVCAR-5
OVCAR-8 = system: OVCAR-8
SF-268 = system: SF-268
SF-295 = system: SF-295
SN12C = system: SN12C
SNB-19 = system: SNB-19
SW-620 = system: SW-620
U-251 = system: U-251
UACC-257 = system: UACC-257
M14 = system: M14
UACC-62 = system: UACC-62
RPMI-8226 = system: RPMI-8226

Measured: GI50

BrC1(Br)C2/C=C\CCCCC21 (configuration not stated)
inactive: EKVX > 100 µM | HCT-116 > 100 µM | HOP-92 42.3 µM | HT-29 > 100 µM | KM12 > 100 µM | LOX IMVI > 100 µM | NCI-H522 > 100 µM | OVCAR-5 > 100 µM | OVCAR-8 > 100 µM | SF-268 > 100 µM | SF-295 > 100 µM | SN12C > 100 µM | SNB-19 > 100 µM | SW-620 > 100 µM | U-251 > 100 µM | UACC-257 > 100 µM

O=C1/C(=N/c2ccc(Nc3ccccc3)cc2)Oc2ccccc21
inactive: EKVX 5.31 µM | HCT-116 1.67 µM | HT-29 2.2 µM | KM12 2.14 µM | LOX IMVI 2.34 µM | M14 2.33 µM | NCI-H522 1.83 µM | OVCAR-5 2.54 µM | OVCAR-8 2.64 µM | SF-268 2.88 µM | SF-295 3.35 µM | SN12C 2.02 µM | SNB-19 2.36 µM | SW-620 2.36 µM | U-251 1.69 µM | UACC-257 2.42 µM | UACC-62 3.28 µM

C/C(=N/Nc1nc(C)cc(O)n1)C(=O)O
inactive: EKVX > 100 µM | HCT-116 > 100 µM | HT-29 > 100 µM | KM12 > 100 µM | LOX IMVI > 100 µM | M14 > 100 µM | NCI-H522 > 100 µM | OVCAR-5 > 100 µM | OVCAR-8 > 100 µM | RPMI-8226 > 100 µM | SF-268 > 100 µM | SF-295 > 100 µM | SN12C 19 µM | SNB-19 > 100 µM | SW-620 > 100 µM | U-251 > 100 µM | UACC-257 > 100 µM | UACC-62 > 100 µM

CCCCCCSC[C@H](OC(C)=O)[C@@H](OC(C)=O)[C@@H](OC(C)=O)[C@@H](COC(C)=O)OC(C)=O
inactive: EKVX > 100 µM | HCT-116 49.9 µM | HOP-92 > 100 µM | HT-29 > 100 µM | KM12 41.9 µM | LOX IMVI > 100 µM | M14 89.7 µM | OVCAR-5 > 100 µM | OVCAR-8 > 100 µM | RPMI-8226 13.3 µM | SF-268 > 100 µM | SF-295 > 100 µM | SN12C > 100 µM | SNB-19 > 100 µM | SW-620 > 100 µM | U-251 > 100 µM | UACC-257 > 100 µM | UACC-62 > 100 µM

CC(C)(C)OC(=O)N1CCC23CCCC2C(=O)CC=C13 (configuration not stated)
inactive: EKVX > 100 µM | HCT-116 72.4 µM | HOP-92 38.3 µM | HT-29 > 100 µM | KM12 > 100 µM | LOX IMVI > 100 µM | M14 > 100 µM | NCI-H522 66.4 µM | OVCAR-5 > 100 µM | OVCAR-8 > 100 µM | SF-268 > 100 µM | SF-295 > 100 µM | SN12C > 100 µM | SNB-19 > 100 µM | SW-620 > 100 µM | U-251 > 100 µM | UACC-257 11.8 µM | UACC-62 > 100 µM

COc1ccc(Nc2[nH]c(C(C)=O)c(N)c2C(=S)Nc2ccccc2)cc1
inactive: EKVX 99.8 µM | HCT-116 38.6 µM | HOP-92 > 100 µM | HT-29 35.3 µM | KM12 37.5 µM | LOX IMVI 32.1 µM | M14 26.8 µM | NCI-H522 36.6 µM | OVCAR-5 > 100 µM | OVCAR-8 60.8 µM | SF-268 29.6 µM | SF-295 61.5 µM | SN12C 86.7 µM | SNB-19 82.8 µM | SW-620 > 100 µM | U-251 43.8 µM | UACC-257 52.2 µM | UACC-62 25.9 µM

O=C1Nc2ccccc2/C1=N/Nc1ccc([N+](=O)[O-])cc1
inactive: EKVX 8.93 µM | HCT-116 20.7 µM | HT-29 61.8 µM | KM12 20.2 µM | LOX IMVI 21.5 µM | M14 30.8 µM | NCI-H522 11.1 µM | OVCAR-5 20.4 µM | OVCAR-8 11.5 µM | RPMI-8226 24.8 µM | SF-268 10.4 µM | SF-295 16.9 µM | SN12C 22.6 µM | SNB-19 32.8 µM | SW-620 33.5 µM | U-251 30.3 µM | UACC-257 29.5 µM | UACC-62 28.8 µM

CC1C2=CC=C(O2)C(C)(C)C2=CC=C(O2)C(C)(C)C2=CC=C(O2)C(C)(C)C2=CC=C1O2
inactive: EKVX > 100 µM | HCT-116 > 100 µM | HOP-92 18.9 µM | HT-29 > 100 µM | KM12 > 100 µM | LOX IMVI > 100 µM | NCI-H522 > 100 µM | OVCAR-5 > 100 µM | OVCAR-8 > 100 µM | SF-268 > 100 µM | SF-295 > 100 µM | SN12C > 100 µM | SNB-19 > 100 µM | SW-620 > 100 µM | U-251 > 100 µM | UACC-257 > 100 µM

O=C(c1ccc(Cl)cc1Cl)N(C(=O)N1CCC(c2ccccc2)CC1)c1ccccc1
inactive: EKVX 86.9 µM | HCT-116 49.4 µM | HOP-92 > 100 µM | HT-29 > 100 µM | KM12 > 100 µM | LOX IMVI > 100 µM | M14 > 100 µM | OVCAR-5 > 100 µM | OVCAR-8 > 100 µM | RPMI-8226 47.9 µM | SF-295 > 100 µM | SN12C > 100 µM | SNB-19 > 100 µM | SW-620 > 100 µM | U-251 > 100 µM | UACC-257 63.8 µM | UACC-62 79.4 µM

O=C(O)c1ccccc1C(=O)OCC1CCCN2CCCCC12 (configuration not stated)
inactive: EKVX > 100 µM | HCT-116 > 100 µM | HOP-92 > 100 µM | HT-29 > 100 µM | KM12 > 100 µM | LOX IMVI > 100 µM | M14 > 100 µM | OVCAR-5 > 100 µM | OVCAR-8 > 100 µM | RPMI-8226 > 100 µM | SF-268 > 100 µM | SF-295 > 100 µM | SN12C > 100 µM | SNB-19 > 100 µM | SW-620 > 100 µM | U-251 > 100 µM | UACC-257 > 100 µM | UACC-62 > 100 µM

C/C=C(\C)C(=O)O[C@@H]1CC(C)(C)CC2C3=CCC4[C@]56CC[C@](O)(OC5)C(C)(C)C6CC[C@@]4(C)C3(C)CC[C@]21C(=O)O (some centres not stated)
inactive: EKVX > 100 µM | HCT-116 79.6 µM | HT-29 97.1 µM | KM12 82.4 µM | LOX IMVI 25.9 µM | M14 > 100 µM | NCI-H522 > 100 µM | OVCAR-5 > 100 µM | OVCAR-8 > 100 µM | RPMI-8226 87.9 µM | SF-268 > 100 µM | SF-295 > 100 µM | SN12C > 100 µM | SNB-19 > 100 µM | SW-620 > 100 µM | U-251 70.5 µM | UACC-257 > 100 µM | UACC-62 > 100 µM

— ChEMBL document CHEMBL1201862, “PubChem BioAssay data set” (2004)
